Key:
[1] = test system: human neuroblastoma cell lines SH-SY5Y treated with 1-methyl-4-phenylpyridinium (MPP+); test: Improvement of mitochondrial function (Alamar Blue mitochondrial oxidation reduction activity) in MPP+-treated SH-SY5Y cells; assay type: cell-based; details: 1.5 mM MPP+, relative to cells in DMSO alone = 100%, read-out: Fluorescence Intensity (%); for activity at 0.01 µg/mL: compound 0.01 μg/ml; for activity at 0.03 µg/mL: compound 0.03 μg/ml; for activity at 0.1 µg/mL: compound 0.1 μg/ml; for activity at 0.3 µg/mL: compound 0.3 μg/ml; for activity at 1 µg/mL: compound 1 μg/ml
Description: In human neuroblastoma cell lines SH-SY5Y in which mitochondrial function was damaged by MPP^+ treatment (Bollimuntha S. et al., J Biol Chem, 280, 2132-2140 (2005) and Shang T. et al., J Biol Chem, 280, 34644-34653 (2005)), the improvement of mitochondrial function was evaluated on the basis of the measurement value for mitochondrial oxidation reduction activity using Alamar Blue fluorescent dye after the compound addition (Nakai M. et al, Exp Neurol, 179, 103-110 (2003)).
The human neuroblastoma cell lines SH-SY5Y were cultured in Dulbecco's Modified Eagle's Medium containing 10% fetal bovine serum (DMEM containing 50 units/ml penicillin and 50 μg/ml streptomycin as antibiotics) at 37° C. in the presence of 5% carbon dioxide. Cells were scattered on a poly-D-lysine-coated 96-well black plate at a concentration of 3−6×10^4 cells/cm^2 (medium amount: 100 μl/well) and cultured in the medium for two days. Further, the medium was changed to DMEM containing a 1% N2 supplement (N2-DMEM) or to a medium (100 μl/well) in which 1.5 mM MPP^+ was dissolved. The cells were cultured therein for 39 to 48 hours, and then subjected to a mitochondrial oxidation reduction activity measurement system. A sample compound that had been previously dissolved in dimethyl sulfoxide (DMSO) was diluted with N2-DMEM and added in a volume of 10 μl/well 24 hours before the activity measurement (final compound concentration: 0.01 to 1 μg/ml).
After removal of the medium by suction, a balanced salt solution containing 10% Alamar Blue (154 mM sodium chloride, 5.6 mM potassium chloride, 2.3 mM calcium chloride, 1.0 mM magnesium chloride, 3.6 mM sodium hydrogen carbonate, 5 mM glucose, 5 mM HEPES, pH 7.2) was added in a volume of 100 μl/well, and reacted in an incubator at 37° C. for 1 hour. The fluorescent intensity was detected using a fluorescence detector (a product of Hamamatsu Photonics K.K., excitation wavelength: 530 nm, measurement wavelength: 580 nm) to thereby measure the mitochondrial oxidation reduction activity.
The fluorescent intensity of the well of the cells cultured in a medium containing MPP^+ and each of the sample compounds was relatively evaluated based on the 100% fluorescent intensity of the well of the cells cultured in a medium containing DMSO alone (final concentration: 0.1%).

Compound | activity at 0.01 µg/mL [1] [%] | activity at 0.03 µg/mL [1] [%] | activity at 0.1 µg/mL [1] [%] | activity at 0.3 µg/mL [1] [%] | activity at 1 µg/mL [1] [%] | melting point [°C]
CCCOc1ccc(C)c2c(=O)c(-c3ccncc3)c[nH]c12 [Example 95, 5-Methyl-8-propoxy-3-pyridin-4-yl-1H-quinolin-4-one] | 51 | 56 | 57 | 61 | 47 | 112 to 113
CCCCc1ccc(C(=O)N(C)C)c2c(=O)c(-c3ccc(OC)cc3)c[nH]c12 [Example 82, 8-Butyl-3-(4-methoxyphenyl)-4-oxo-1,4-dihydroquinolin-5-carboxylic acid dimethylamide] | 63 | 62 | 62 | 69 | 81 | 198 to 200
CCCOc1ccc(OC)c2c(=O)c(-c3cccc4ccccc34)c[nH]c12 [Example 51, 5-Methoxy-3-naphthalen-1-yl-8-propoxy-1H-quinolin-4-one] | 37 | 45 | 54 | 65 | 49 | 130 to 133
CCCOc1ccc(OC)c2c(=O)c(-c3ccc(Cl)cc3Cl)c[nH]c12 [Example 38, 3-(2,4-Dichlorophenyl)-5-methoxy-8-propoxy-1H-quinolin-4-one] | 47 | 54 | 67 | 75 | 65 | 125
CCCOc1c(C)cc(C)c2c(=O)c(-c3ccc(OC)cc3)c[nH]c12 [Example 23, 3-(4-Methoxyphenyl)-5,7-dimethyl-8-propoxy-1H-quinolin-4-one] | 51 | 63 | 67 | 68 | 59 | 174 to 175
CCCOc1ccc(C(=O)N(C)C)c2c(=O)c(-c3ccc(OC)cc3)c[nH]c12 [Example 87, 3-(4-Methoxyphenyl)-4-oxo-8-propoxy-1,4-dihydroquinolin-5-carboxylic acid dimethylamide] | 57 | 57 | 60 | 65 | 66 | 218 to 220
COc1ccc(-c2c[nH]c3c(-c4ccco4)ccc(C)c3c2=O)cc1 [Example 96, 8-Furan-2-yl-3-(4-methoxyphenyl)-5-methyl-1H-quinolin-4-one] | 54 | 64 | 68 | 60 | 23 | 129 to 131
CCCOc1ccc(C)c2c(=O)c(-c3ccc(OC)cc3OC)c[nH]c12 [Example 20, 3-(2,4-Dimethoxyphenyl)-5-methyl-8-propoxy-1H-quinolin-4-one] | 65 | 67 | 74 | 78 | 77 | 193 to 194
CCCOc1ccc(OC)c2c(=O)c(-c3ccc(OC)cc3OC)c[nH]c12 [Example 21, 3-(2,4-Dimethoxyphenyl)-5-methoxy-8-propoxy-1H-quinolin-4-one] | 65 | 68 | 77 | 82 | 84 | 113 to 114
CCCOc1ccc(C)c2c(=O)c(-c3csc4ccccc34)c[nH]c12 [Example 63, 3-Benzo[b]thiophen-3-yl-5-methyl-8-propoxy-1H-quinolin-4-one] | 40 | 48 | 57 | 43 | 21 | 80 to 82
CCCOc1ccc(C(F)(F)F)c2c(=O)c(-c3ccc(OC)cc3)c[nH]c12 [Example 24, 3-(4-Methoxyphenyl)-8-propoxy-5-trifluoromethyl-1H-quinolin-4-one] | 50 | 57 | 64 | 63 | 36 | 220 to 221
COc1ccc(OCC2CC2)c2[nH]c(C)c(-c3ccco3)c(=O)c12 [Example 109, 8-Cyclopropylmethoxy-3-furan-2-yl-5-methoxy-2-methyl-1H-quinolin-4-one] | 49 | 62 | 65 | 82 | 73 | 189 to 190
COc1ccc(-c2c[nH]c3c(N4CCCC4)ccc(C)c3c2=O)cc1 [Example 68, 3-(4-Methoxyphenyl)-5-methyl-8-pyrrolidin-1-yl-1H-quinolin-4-one] | 49 | 56 | 62 | 57 | 33 | 177 to 178
CCCOc1c(OC)cc(C)c2c(=O)c(-c3ccc(OC)cc3)c[nH]c12 [Example 37, 7-Methoxy-3-(4-methoxyphenyl)-5-methyl-8-propoxy-1H-quinolin-4-one] | 47 | 54 | 55 | 60 | 59 | 195 to 196
CCCOc1cccc2c(=O)c(-c3ccccc3C(F)(F)F)c[nH]c12 [Example 32, 8-Propoxy-3-(2-trofluoromethylphenyl)-1H-quinolin-4-one] | 49 | 53 | 54 | 57 | 61 | 224
CCn1cc(-c2ccc(OC)cc2)c(=O)c2ccc(OC)cc21 [Example 2, 1-Ethyl-7-methoxy-3-(4-methoxyphenyl)-1H-quinolin-4-one] | 71 | 73 | 74 | 77 | 81 | 129 to 131
CCCOc1ccc(OC)c2c(=O)c(-c3ccc(OC)cc3)c[nH]c12 [Example 13, 5-Methoxy-3-(4-methoxyphenyl)-8-propoxy-1H-quinolin-4-one] | 56 | 65 | 74 | 69 | 62 | 223 to 224
COc1ccc(-c2c[nH]c3c(Br)ccc(C)c3c2=O)cc1 [Example 86, 8-Bromo-3-(4-methoxyphenyl)-5-methyl-1H-quinolin-4-one] | 60 | 65 | 65 | 65 | 52 | 185 to 186
CCCOc1ccc(C)c2c(=O)c(-c3ccc4c(c3)OCO4)c[nH]c12 [Example 60, 3-Benzo[1,3]dioxol-5-yl-5-methyl-8-propoxy-1H-quinolin-4-one] | 52 | 65 | 75 | 70 | 44 | 110 to 115
CCCOc1cc(F)cc2c(=O)c(-c3ccc(OC)cc3)c[nH]c12 [Example 34, 6-Fluoro-3-(4-methoxyphenyl)-8-propoxy-1H-quinolin-4-one] | 47 | 53 | 53 | 63 | 53 | 153 to 154
CCCOc1ccc(C)c2c(=O)c(-c3ccsc3)c[nH]c12 [Example 58, 5-Methyl-8-propoxy-3-thiophen-3-yl-1H-quinolin-4-one] | 42 | 53 | 60 | 61 | 55 | 104 to 107
